Targets include FER (Homo sapiens, UniProt P16591); JAK1 (Homo sapiens, UniProt P23458); STK39 (Homo sapiens, UniProt Q9UEW8); PRKCB (Homo sapiens, UniProt P05771); MAP2K2 (Homo sapiens, UniProt P36507); MINK1 (Homo sapiens, UniProt Q8N4C8); CDK7 (Homo sapiens, UniProt P50613); GSK3A (Homo sapiens, UniProt P49840).
Common to all, as to experiment: biochemical
Parameters in all cases: endogenous in cells; host or cells: K562 cell extract; species or system K562 (extract); replicate k of n = 2 (each experiment ID is one independent experiment; two experiment IDs per compound)
Holding throughout (conditions): read-out: KDapp

In another assay the target is T1, PIP4K2A (Homo sapiens, UniProt P48426).
T1 sequence (P48426 1-406): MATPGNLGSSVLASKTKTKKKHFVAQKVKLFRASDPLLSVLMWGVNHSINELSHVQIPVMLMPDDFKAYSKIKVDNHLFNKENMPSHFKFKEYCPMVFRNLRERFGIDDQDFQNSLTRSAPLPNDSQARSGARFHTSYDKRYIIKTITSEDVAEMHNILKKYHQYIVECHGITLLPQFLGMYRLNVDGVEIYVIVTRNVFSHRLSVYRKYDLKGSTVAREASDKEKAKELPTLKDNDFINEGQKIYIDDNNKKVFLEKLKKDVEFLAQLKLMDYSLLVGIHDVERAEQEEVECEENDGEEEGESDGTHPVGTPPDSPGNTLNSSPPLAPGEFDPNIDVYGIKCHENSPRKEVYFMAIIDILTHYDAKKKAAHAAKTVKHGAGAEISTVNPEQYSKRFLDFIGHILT

Another assay addresses T2, EPHB4 (Homo sapiens, UniProt P54760).
T2 sequence (P54760 1-987): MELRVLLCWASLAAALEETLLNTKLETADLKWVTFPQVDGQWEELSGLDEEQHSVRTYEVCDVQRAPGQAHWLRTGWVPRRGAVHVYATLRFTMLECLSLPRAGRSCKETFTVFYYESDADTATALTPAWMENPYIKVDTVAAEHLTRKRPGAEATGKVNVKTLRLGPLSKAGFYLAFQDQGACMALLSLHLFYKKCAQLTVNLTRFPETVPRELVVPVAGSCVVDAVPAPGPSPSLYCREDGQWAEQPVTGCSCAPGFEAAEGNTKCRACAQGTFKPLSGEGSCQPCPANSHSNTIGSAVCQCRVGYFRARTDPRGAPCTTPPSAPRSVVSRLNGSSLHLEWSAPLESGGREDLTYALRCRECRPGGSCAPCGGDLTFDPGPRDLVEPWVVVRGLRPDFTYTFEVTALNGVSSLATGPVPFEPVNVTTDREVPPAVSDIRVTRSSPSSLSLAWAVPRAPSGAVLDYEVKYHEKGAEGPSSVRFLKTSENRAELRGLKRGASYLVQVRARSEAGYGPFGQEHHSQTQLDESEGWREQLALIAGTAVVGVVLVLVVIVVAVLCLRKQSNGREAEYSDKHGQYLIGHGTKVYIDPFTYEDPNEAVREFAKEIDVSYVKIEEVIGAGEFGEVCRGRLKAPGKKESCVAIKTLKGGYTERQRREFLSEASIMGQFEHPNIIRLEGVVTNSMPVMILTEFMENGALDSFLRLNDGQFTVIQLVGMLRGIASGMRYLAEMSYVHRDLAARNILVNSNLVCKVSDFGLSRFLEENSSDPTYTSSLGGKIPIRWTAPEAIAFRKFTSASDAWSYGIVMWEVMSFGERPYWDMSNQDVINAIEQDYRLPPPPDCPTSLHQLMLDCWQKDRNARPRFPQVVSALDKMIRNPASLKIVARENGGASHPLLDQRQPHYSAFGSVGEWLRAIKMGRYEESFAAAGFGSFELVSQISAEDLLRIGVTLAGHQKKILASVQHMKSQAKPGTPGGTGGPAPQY

Each structure is given as a SMILES string. Several values for one entry are separate records, joined by “and”; a condition that tells them apart may be missing. Equal values may be shown once.

PRKCB, sequence (P05771 whole entry): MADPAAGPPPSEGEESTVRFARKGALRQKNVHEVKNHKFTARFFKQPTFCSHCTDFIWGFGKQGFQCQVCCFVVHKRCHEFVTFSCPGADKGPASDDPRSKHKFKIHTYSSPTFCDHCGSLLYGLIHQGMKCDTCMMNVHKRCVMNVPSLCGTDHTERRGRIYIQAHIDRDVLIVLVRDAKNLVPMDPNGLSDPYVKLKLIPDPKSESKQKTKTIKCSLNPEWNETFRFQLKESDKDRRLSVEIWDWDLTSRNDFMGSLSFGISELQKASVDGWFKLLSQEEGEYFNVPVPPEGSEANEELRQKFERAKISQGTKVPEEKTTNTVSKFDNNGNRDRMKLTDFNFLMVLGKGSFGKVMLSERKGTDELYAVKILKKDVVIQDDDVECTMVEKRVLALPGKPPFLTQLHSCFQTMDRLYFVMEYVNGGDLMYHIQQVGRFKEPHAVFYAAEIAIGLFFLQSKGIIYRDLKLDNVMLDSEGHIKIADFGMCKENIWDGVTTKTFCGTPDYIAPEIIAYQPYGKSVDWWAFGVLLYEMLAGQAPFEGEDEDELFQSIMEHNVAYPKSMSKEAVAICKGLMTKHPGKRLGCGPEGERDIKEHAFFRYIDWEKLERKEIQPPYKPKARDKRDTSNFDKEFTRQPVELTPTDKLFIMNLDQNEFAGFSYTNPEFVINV
MAP2K2, sequence (P36507 whole entry): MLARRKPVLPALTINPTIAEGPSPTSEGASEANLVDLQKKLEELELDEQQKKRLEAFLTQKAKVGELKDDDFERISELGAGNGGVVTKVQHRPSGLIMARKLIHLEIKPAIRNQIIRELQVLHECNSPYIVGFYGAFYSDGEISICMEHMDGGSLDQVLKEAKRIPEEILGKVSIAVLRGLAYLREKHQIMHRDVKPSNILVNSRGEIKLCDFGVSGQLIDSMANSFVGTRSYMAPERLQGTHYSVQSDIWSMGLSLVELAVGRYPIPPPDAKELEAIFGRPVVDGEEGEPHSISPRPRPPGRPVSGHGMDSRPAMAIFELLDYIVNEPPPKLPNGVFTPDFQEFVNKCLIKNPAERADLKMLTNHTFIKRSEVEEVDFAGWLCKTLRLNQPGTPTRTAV
GSK3A, sequence (P49840 whole entry): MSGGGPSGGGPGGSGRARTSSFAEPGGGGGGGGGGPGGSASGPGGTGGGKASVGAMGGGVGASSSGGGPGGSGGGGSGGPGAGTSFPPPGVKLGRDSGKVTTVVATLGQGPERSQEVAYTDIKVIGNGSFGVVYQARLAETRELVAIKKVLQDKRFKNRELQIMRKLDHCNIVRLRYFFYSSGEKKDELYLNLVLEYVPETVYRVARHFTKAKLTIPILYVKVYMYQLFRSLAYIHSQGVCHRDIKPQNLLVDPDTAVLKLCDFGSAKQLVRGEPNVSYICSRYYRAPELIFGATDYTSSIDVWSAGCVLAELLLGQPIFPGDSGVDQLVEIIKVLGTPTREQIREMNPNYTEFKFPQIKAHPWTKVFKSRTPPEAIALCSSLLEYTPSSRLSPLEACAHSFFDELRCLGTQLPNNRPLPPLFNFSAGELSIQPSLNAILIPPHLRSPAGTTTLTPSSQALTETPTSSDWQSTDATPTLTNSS
CDK7, sequence (P50613 whole entry): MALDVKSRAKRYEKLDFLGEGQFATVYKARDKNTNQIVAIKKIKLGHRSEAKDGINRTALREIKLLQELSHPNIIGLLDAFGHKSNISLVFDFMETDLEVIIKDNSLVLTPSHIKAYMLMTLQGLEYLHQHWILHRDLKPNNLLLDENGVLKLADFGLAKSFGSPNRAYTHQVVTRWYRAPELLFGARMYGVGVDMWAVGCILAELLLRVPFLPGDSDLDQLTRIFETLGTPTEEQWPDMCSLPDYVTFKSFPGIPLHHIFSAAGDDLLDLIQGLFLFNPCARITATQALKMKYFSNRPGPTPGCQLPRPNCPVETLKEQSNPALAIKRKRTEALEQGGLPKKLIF
JAK1, sequence (P23458 whole entry): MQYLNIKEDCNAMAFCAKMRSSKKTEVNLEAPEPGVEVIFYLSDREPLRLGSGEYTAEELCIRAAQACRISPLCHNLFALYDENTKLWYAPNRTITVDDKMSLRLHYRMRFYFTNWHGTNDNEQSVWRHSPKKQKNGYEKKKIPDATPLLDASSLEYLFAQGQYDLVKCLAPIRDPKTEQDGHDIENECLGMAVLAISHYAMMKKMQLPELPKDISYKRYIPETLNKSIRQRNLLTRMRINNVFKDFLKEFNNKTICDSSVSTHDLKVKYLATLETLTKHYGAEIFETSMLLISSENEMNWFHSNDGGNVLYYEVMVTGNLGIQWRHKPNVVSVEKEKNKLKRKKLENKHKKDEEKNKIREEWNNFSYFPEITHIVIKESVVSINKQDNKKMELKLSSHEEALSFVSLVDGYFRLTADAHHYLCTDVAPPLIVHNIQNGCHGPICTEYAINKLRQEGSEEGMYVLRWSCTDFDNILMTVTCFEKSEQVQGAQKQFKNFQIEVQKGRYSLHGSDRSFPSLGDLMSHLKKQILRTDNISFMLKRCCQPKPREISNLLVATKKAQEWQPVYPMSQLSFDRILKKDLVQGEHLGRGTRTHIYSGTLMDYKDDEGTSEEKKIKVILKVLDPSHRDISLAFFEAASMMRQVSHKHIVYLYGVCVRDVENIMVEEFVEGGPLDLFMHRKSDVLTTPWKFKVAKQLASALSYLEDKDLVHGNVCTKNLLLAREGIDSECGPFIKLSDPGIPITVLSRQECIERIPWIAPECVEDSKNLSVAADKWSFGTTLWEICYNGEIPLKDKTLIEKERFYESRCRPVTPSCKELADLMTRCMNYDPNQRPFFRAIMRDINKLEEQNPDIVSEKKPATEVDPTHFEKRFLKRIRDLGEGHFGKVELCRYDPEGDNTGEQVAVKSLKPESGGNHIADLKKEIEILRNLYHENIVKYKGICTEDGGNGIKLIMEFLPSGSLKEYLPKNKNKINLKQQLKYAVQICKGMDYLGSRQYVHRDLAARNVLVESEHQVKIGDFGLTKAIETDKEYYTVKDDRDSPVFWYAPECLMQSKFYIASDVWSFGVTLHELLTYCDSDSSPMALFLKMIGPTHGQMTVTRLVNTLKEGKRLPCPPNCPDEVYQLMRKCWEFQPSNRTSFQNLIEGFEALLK
FER, sequence (P16591 whole entry): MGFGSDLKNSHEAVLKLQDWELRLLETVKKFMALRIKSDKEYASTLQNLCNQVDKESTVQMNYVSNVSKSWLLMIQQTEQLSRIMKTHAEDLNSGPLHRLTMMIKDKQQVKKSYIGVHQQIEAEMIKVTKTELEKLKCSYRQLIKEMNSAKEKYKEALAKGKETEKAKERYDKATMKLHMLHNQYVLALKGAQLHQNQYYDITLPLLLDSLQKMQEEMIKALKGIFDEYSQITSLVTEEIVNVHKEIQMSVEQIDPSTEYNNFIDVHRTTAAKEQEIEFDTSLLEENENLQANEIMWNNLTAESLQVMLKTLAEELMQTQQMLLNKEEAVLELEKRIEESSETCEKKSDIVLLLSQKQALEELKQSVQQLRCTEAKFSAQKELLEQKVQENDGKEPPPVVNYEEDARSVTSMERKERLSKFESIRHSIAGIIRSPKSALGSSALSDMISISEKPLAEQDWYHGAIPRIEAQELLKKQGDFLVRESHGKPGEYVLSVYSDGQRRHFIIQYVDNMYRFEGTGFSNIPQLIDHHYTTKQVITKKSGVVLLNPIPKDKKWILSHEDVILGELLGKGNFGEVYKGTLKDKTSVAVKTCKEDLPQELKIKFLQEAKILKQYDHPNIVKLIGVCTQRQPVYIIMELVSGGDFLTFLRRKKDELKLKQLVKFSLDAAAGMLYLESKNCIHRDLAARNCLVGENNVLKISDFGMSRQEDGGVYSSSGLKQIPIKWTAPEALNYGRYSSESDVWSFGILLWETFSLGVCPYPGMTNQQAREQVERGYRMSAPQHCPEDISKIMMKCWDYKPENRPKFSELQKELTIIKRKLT

On to `CN1CCN(c2ccc(Nc3ncc(C#N)c(Nc4ccccc4C(N)=O)n3)cc2)CC1.Cl` [TCMDC-134116], for which the Kd at FER was 79.3 nM and 75.7 nM; at JAK1, 13.1 nM and 19.5 nM; on PIP4K2A it was 775 nM and 987 nM; at STK39, 58 nM; on EPHB4, 2110 nM; on PRKCB, 410 nM. Besides, the Kd at MAP2K2 is 727 nM and 858 nM; on MINK1, 173 nM; at CDK7 it was 422 nM and 494 nM; on GSK3A it was 470 nM and 369 nM.

As to `Cl.NCC1(c2nc(-c3ccc(Cl)c(O)c3)c(-c3ccncc3)[nH]2)CCCCC1` [TCMDC-141154], the Kd at EPHB4 is 2600 nM; on PRKCB it was 5660 nM and 2780 nM; on MAP2K2 it was 7880 nM; at MINK1 it was 837 nM.

As for `CN(C)CC(O)COc1ccc(Nc2ncc([N+](=O)[O-])c(Nc3ccccc3O)n2)cc1.O=C(O)C(F)(F)F` (centres unmarked) [TCMDC-141399], the Kd on FER was 335 nM and 292 nM; at JAK1, 272 nM and 346 nM; at PIP4K2A, 846 nM and 669 nM; on STK39, 4760 nM; at CDK7 it was 1430 nM and 4620 nM; at GSK3A, 2250 nM and 2480 nM.

These data come from article PMC4774911, “Biochemical Screening of Five Protein Kinases from Plasmodium falciparum against 14,000 Cell-Active Compounds” (PLoS ONE, 2016).
